Patent US10816552B2 (The Governing Council of the University of Toronto, priority 2014, dated 2020)

Columns and labels:
[1] = tested on: Jurkat cells; experiment: Metabolic toxicity assay (WST-1) in Jurkat cells; format: cell-based; details: Jurkat cells, 24 hour incubation, WST-1
Method: FIGS. 7A, B and C show a) and b) the cell proliferation rate of HCT116 cells as a function of time in the presence of various concentrations of the exemplary compound, Telox-2 (confluency analysis); and c) the metabolic toxicity of the exemplary compound, Telox-2, in Jurkat cells as measured by reduction of WST-1. Cells were incubated with Telox-2 for 24 hours prior to a 30 minute exposure to WST-1.
A 96 well clear fluorometer plate was loaded with 200 μL of Jurkat cells at a culture density of 1×10^6 cells per mL. To each well was added an appropriate amount of a stock solution of Telox/Telox2 in sterile DMSO to reach a desired concentration of Telox/Telox2 (1-1000 micromole). The concentration of DMSO was 1% in all wells. Cells were allowed to incubate for 24 h at 37° C. under normal atmosphere, after which 20 μL of a commercially available solution of WST-1 in PBS (Roche Diagnostics, product #05015944001) was added to each well (gentle pipetting evenly distributed the reagent throughout the well). Cells were allowed to incubate for a further 0.5 h at 37° C. under normal atmosphere, followed by subsequent measurement of the absorbance of each well at 450 nm using a TECAN Safire 2 plate reader. Data was background corrected vs. wells that contained cell growth media (without cells), an appropriate concentration of Telox2, a final concentration of DMSO=1%, and WST-1. Background correction wells were incubated in the same manner as described for cell-positive wells.
To investigate the organotellurium compounds of study as potential probe moieties for MC, the metabolic toxicity of the compounds was evaluated. Organotellurium compounds are often described as toxic, with aryl telluroethers showing cellular toxicity below 100 μM across a range of cell lines under different assay conditions.^9-11,38,39 The toxicity of compounds 8-11 was investigated in a commonly used Jurkat cell line after a 24 hour incubation using the metabolic probe WST-1 (Roche Diagnostics, Laval, Quebec) as per manufacturer's instructions. As compounds 8, 9 and 10 are expected to show degradation over the time frame of the toxicity assay, based on the NMR stability studies, these experiments show the relative toxicity of the compounds and their resulting degradation products (Table 2). […] The LD50 values of the exemplary organotellurium compounds of the present application provide promise for their use as activity based MC probes since the general MC experiment can be achieved at concentrations of ˜100 μM.^5

[2] = Empirical log P by UV-Vis assay; format: physicochemical; details: aqueous buffer; UV-Vis assay conditions
[3] = Solubility observations; format: physicochemical
[4] = tested on: NADPH:cytochrome P450 oxidoreductase (POR); format: cell-based; details: mutant HCT116, 10 μM, 3 hours
Method: FIGS. 10A-C show a) the mass cytometry histograms of wild-type HCT116 cells incubated with 10 μM of the exemplary compound, Telox-2, for 3 hours in atmosphere containing either 21% O2, 1% O2, 0.2% O2, or <0.02% O2); b) the mass cytometry histograms of mutant HCT116 cells overexpressing POR incubated with 10 μM Telox-2 for 3 hours in atmosphere containing either 21% O2, 1% O2, 0.2% O2 or <0.02% O2; and c) the mass cytometry histograms of mutant HCT116 cells unable to express POR incubated with 10 μM Telox-2 for 3 hours in atmosphere containing either 21% O2, 1% O2, 0.2% O2, or <0.02% O2.
To confirm the reductive metabolism of Telox-2 it investigated using mutant HCT116 cell lines that either overexpressed NADPH:cytochrome P450 oxidoreductase (POR) or had this enzyme knocked out (FIG. 10 part b).

[5] = tested on: HCT116 cells; experiment: Competitive labelling with pimonidazole (mass cytometry); format: cell-based; details: HCT116, Telox-2 10 μM, near-anoxic
Method: Concentration Telox-2=10 μM. The absolute ^130Te signal was measured using mass cytometry.
HCT 116 cells (see sections i and ii) were incubated in media containing Telox or Telox2 (100 μM, added as a neat solution in sterile DMSO; final [DMSO]=0.1%) for 3 hours under atmosphere containing an appropriate concentration of O2. Following incubation, the media was removed, cells were washed with sterile PBS, and then separated from the incubation plate via trypsinization (37° C., 10 min) and gentle scraping. The cell suspension was pelleted and resuspended in PBS containing β-ME (1.0 mL, 100 mM). Cells were pelleted, resuspended in PBS (900 μL, no β-ME), and fixed with formaldehyde (100 μL, 37% solution) for 25 minutes. Following fixation, cells were pelleted, resuspended in PBS containing β-ME (1.0 mL, 100 mM), and pelleted once again. Cells were then resuspended in PBS ([…], no β-ME) and incubated with either the Ir-containing nucleic acid intercalator (hypoxic cells) or the Rh containing nucleic acid intercalator (normoxic cells) (10 μL, 100 μM solution in sterile PBS) for 20 minutes. Cells were then pelleted and resuspended in PBS (1.0 mL, no β-ME) twice. Cell pellets were then resuspended in PBS containing ^151/153EU beads (1/10 dilution of CyTOF® calibration beads, DVS Sciences, 1.0-2.5 mL depending on pellet size). […]

## O=[N+]([O-])c1nccn1CCc1ccc[te]1 [Telox-2, 2-nitro-1-(2-(tellurophen-2-yl)ethyl)-1H-imidazole]
[1]
  LD50 (metabolic toxicity): ~270 µM
[2]
  logP: 1.3
[3]
  solubility, in words: unusually high water solubility
[4]
  labelling in POR-knockout cell line compared to wild type: nearly identical to that in the wild type
  labelling in cell line overexpressing POR compared to wild type: greatly enhanced labelling
[5]
  labelling under competitive conditions with pimonidazole: reduced in a (pimonidazole) dose-dependent manner
